Measurements reported in patent US10160743B2, “Sulphamoylthiophenamide derivatives and the use thereof as medicaments for the treatment of hepatitis B” (Janssen Sciences Ireland UC, priority 2013, dated 2018).

Key:
HBV [1] = experiment: Anti-HBV activity, HepG2.117 cell line (Tet-off), intracellular HBV DNA by realtime PCR; type: cell-based, Hepatitis B virus; conditions: HepG2.117 cells, 3 days of treatment
[2] = Cytotoxicity in HepG2 cells, Resazurin assay; type: cell-based; conditions: human, incubated for 4 days, Resazurin viability
HBV [3] = experiment: Anti-HBV activity, HepG2.2.15 cell line, HBV DNA from secreted virions by realtime PCR; type: cell-based, Hepatitis B virus; conditions: HepG2.2.15 cells, 6 days of treatment
[4] = Hepatitis B virus, HepG2.117, 72 h
[5] = Hepatitis B virus, HepG2.2.15, 144 h

SMILES	EC50 (HBV [1])	CC50 at 4 days [2]	EC50 (HBV [3])	EC50 (HBV [1]; [4])	EC50 (HBV [3]; [5])
Cc1cc(NC(=O)c2cc(S(=O)(=O)NC3(C)CCOC3)sc2C)ccc1F (racemic) [Compound 16, N-(4-fluoro-3-methyl-phenyl)-2-methyl-5-[(3-methyltetrahydrofuran-3-yl)sulfamoyl]thiophene-3-carboxamide]	48 nM	> 25000 nM	54 nM		
Cc1sc(S(=O)(=O)NC2(C(F)(F)F)CCOC2)cc1C(=O)Nc1cccc(C(F)(F)F)c1 (racemic) [Compound 41, 2-methyl-N-[3-(trifluoromethyl)phenyl]-5-[[3-(trifluoromethyl)tetrahydrofuran-3-yl]sulfamoyl]thiophene-3-carboxamide]		> 25000 nM		> 1000 nM	550 nM
Cc1sc(S(=O)(=O)NC2(C(F)(F)F)CCOC2)cc1C(=O)Nc1ccc(F)c(C#N)c1 (racemic) [Compound 54, N-(3-cyano-4-fluoro-phenyl)-2-methyl-5-[[3-(trifluoromethyl)tetrahydrofuran-3-yl]sulfamoyl]thiophene-3-carboxamide]		> 25000 nM		100 nM	180 nM
Cc1cc(NC(=O)c2csc(S(=O)(=O)N[C@H]3CCOC3)c2)ccc1F [Compound 1, N-(4-fluoro-3-methyl-phenyl)-5-[[(3S)-tetrahydrofuran-3-yl]sulfamoyl]thiophene-3-carboxamide]		> 25000 nM		320 nM	170 nM
Cc1cc(NC(=O)c2cc(S(=O)(=O)N[C@H]3CCOC3)sc2Br)ccc1F [Compound 2, 2-bromo-N-(4-fluoro-3-methyl-phenyl)-5-[[(3S)-tetrahydrofuran-3-yl]-sulfamoyl]thiophene-3-carboxamide]		> 25000 nM		1900 nM	810 nM
Cc1cc(NC(=O)c2cc(S(=O)(=O)N[C@H](C)CO)sc2Cl)ccc1F [Compound 3, 2-chloro-N-(4-fluoro-3-methyl-phenyl)-5-[[(1R)-2-hydroxy-1-methyl-ethyl]sulfamoyl]thiophene-3-carboxamide]		> 25000 nM		340 nM	210 nM
Cc1cc(NC(=O)c2cc(S(=O)(=O)N[C@H]3CCOC3)sc2Cl)ccc1F [Compound 4, 2-chloro-N-(4-fluoro-3-methyl-phenyl)-5-[[(3S)-tetrahydrofuran-3-yl]-sulfamoyl]thiophene-3-carboxamide]		> 25000 nM		560 nM	570 nM
Cc1cc(NC(=O)c2cc(S(=O)(=O)N[C@H]3CCOC3)sc2C(F)(F)F)ccc1F [Compound 5, N-(4-fluoro-3-methyl-phenyl)-5-[[(3S)-tetrahydrofuran-3-yl]sulfamoyl]-2-(trifluoromethyl)thiophene-3-carboxamide]		> 25000 nM		1180 nM	1670 nM
Cc1cc(NC(=O)c2cc(S(=O)(=O)N[C@H]3CCOC3)sc2C2CC2)ccc1F [Compound 6, 2-cyclopropyl-N-(4-fluoro-3-methyl-phenyl)-5-[[(3S)-tetrahydrofuran-3-yl]sulfamoyl]thiophene-3-carboxamide]		> 25000 nM		680 nM	580 nM
Cc1cc(NC(=O)c2cc(S(=O)(=O)N[C@H]3CCOC3)sc2C)ccc1F [Compound 7, N-(4-fluoro-3-methyl-phenyl)-2-methyl-5-[[(3S)-tetrahydrofuran-3-yl]-sulfamoyl]thiophene-3-carboxamide]		> 25000 nM		160 nM	170 nM
Cc1cc(NC(=O)c2cc(S(=O)(=O)N[C@H]3CCOC3)cs2)ccc1F [Compound 8, N-(4-fluoro-3-methyl-phenyl)-4-[[(3S)-tetrahydrofuran-3-yl]sulfamoyl]thiophene-2-carboxamide]		> 25000 nM		160 nM	100 nM
Cc1cc(NC(=O)c2cc(S(=O)(=O)N[C@H]3CCOC3)c(C)s2)ccc1F [Compound 9, N-(4-fluoro-3-methyl-phenyl)-5-methyl-4-[[(3S)-tetrahydrofuran-3-yl]-sulfamoyl]thiophene-2-carboxamide]		> 25000 nM		1100 nM	790 nM
Cc1cc(NC(=O)c2cc(S(=O)(=O)NC3(C)COC3)c(C)s2)ccc1F [Compound 10, N-(4-fluoro-3-methyl-phenyl)-5-methyl-4-[(3-methyloxetan-3-yl)-sulfamoyl]thiophene-2-carboxamide]		> 25000 nM		560 nM	430 nM
Cc1cc(NC(=O)c2scc(S(=O)(=O)N[C@H]3CCOC3)c2C)ccc1F [Compound 11, N-(4-fluoro-3-methyl-phenyl)-3-methyl-4-[[(3S)-tetrahydrofuran-3-yl]-sulfamoyl]thiophene-2-carboxamide]		> 25000 nM		310 nM	190 nM
Cc1cc(NC(=O)c2scc(S(=O)(=O)NC3(C)COC3)c2C)ccc1F [Compound 12, N-(4-fluoro-3-methyl-phenyl)-3-methyl-4-[(3-methyloxetan-3-yl)-sulfamoyl]thiophene-2-carboxamide]		> 25000 nM		190 nM	160 nM
Cc1cc(NC(=O)c2ccc(S(=O)(=O)N[C@H]3CCOC3)s2)ccc1F [Compound 13, N-(4-fluoro-3-methyl-phenyl)-5-[[(3S)-tetrahydrofuran-3-yl]-sulfamoyl]thiophene-2-carboxamide]		> 25000 nM		940 nM	1700 nM
CCc1sc(S(=O)(=O)N[C@H]2CCOC2)cc1C(=O)Nc1ccc(F)c(C)c1 [Compound 14, 2-ethyl-N-(4-fluoro-3-methyl-phenyl)-5-[[(3S)-tetrahydrofuran-3-yl]-sulfamoyl]thiophene-3-carboxamide]		> 25000 nM		130 nM	630 nM
Cc1cc(NC(=O)c2cc(S(=O)(=O)NC3(C)COC3)sc2C)ccc1F [Compound 15, N-(4-fluoro-3-methyl-phenyl)-2-methyl-5-[(3-methyloxetan-3-yl)-sulfamoyl]thiophene-3-carboxamide]		> 25000 nM		160 nM	27 nM
Cc1sc(S(=O)(=O)NC(C)(C)C)cc1C(=O)Nc1ccc(F)c(F)c1 [Compound 17, 5-(tert-butylsulfamoyl)-N-(3,4-difluorophenyl)-2-methyl-thiophene-3-carboxamide]		11700 nM		130 nM	120 nM
CC[C@@H](C)NS(=O)(=O)c1cc(C(=O)Nc2ccc(F)c(F)c2)c(C)s1 [Compound 18, N-(3,4-difluorophenyl)-2-methyl-5-[[(1R)-1-methylpropyl]sulfamoyl]thiophene-3-carboxamide]		14600 nM		82 nM	65 nM
Cc1sc(S(=O)(=O)NC2(C)COC2)cc1C(=O)Nc1cc(F)c(F)c(Cl)c1 [Compound 19, N-(3-chloro-4,5-difluoro-phenyl)-2-methyl-5-[(3-methyloxetan-3-yl)-sulfamoyl]thiophene-3-carboxamide]		> 25000 nM		100 nM	63 nM
Cc1sc(S(=O)(=O)NC(C)(C)C)cc1C(=O)Nc1cc(F)c(F)c(Cl)c1 [Compound 20, 5-(tert-Butylsulfamoyl)-N-(3-chloro-4,5-difluorophenyl)-2-methylthiophene-3-carboxamide]		15900 nM		110 nM	170 nM
Cc1sc(S(=O)(=O)NC(C)(C)C)cc1C(=O)Nc1cccc(C(F)(F)F)c1 [Compound 21, 5-(tert-butylsulfamoyl)-2-methyl-N-[3-(trifluoromethyl)phenyl]thiophene-3-carboxamide]		10500 nM		> 1000 nM	320 nM
Cc1sc(S(=O)(=O)NC2(C)COC2)cc1C(=O)Nc1cccc(C(F)(F)F)c1 [Compound 22, 2-methyl-5-[(3-methyloxetan-3-yl)sulfamoyl]-N-[3-(trifluoromethyl)-phenyl]thiophene-3-carboxamide]		> 25000 nM		230 nM	250 nM
Cc1cc(NC(=O)c2cc(S(=O)(=O)NC(C)(C)C)sc2C)cc(F)c1F [Compound 23, 5-(tert-Butylsulfamoyl)-N-(3,4-difluoro-5-methylphenyl)-2-methylthiophene-3-carboxamide]		18100 nM		32 nM	110 nM
Cc1sc(S(=O)(=O)NC(C)(C)C)cc1C(=O)Nc1ccc(F)c(C#N)c1 [Compound 24, 5-(tert-Butylsulfamoyl)-N-(3-cyano-4-fluorophenyl)-2-methylthiophene-3-carboxamide]		> 25000 nM		150 nM	120 nM
Cc1cc(NC(=O)c2cc(S(=O)(=O)NC(C)(C)C)sc2C)ccc1F [Compound 25, 5-(tert-Butylsulfamoyl)-N-(4-fluoro-3-methylphenyl)-2-methylthiophene-3-carboxamide]		> 25000 nM		58 nM	53 nM
Cc1sc(S(=O)(=O)NC(C)(C)C)cc1C(=O)Nc1ccc(F)c(Cl)c1 [Compound 26, 5-(tert-Butylsulfamoyl)-N-(3-chloro-4-fluorophenyl)-2-methylthiophene-3-carboxamide]		11500 nM		51 nM	170 nM
Cc1sc(S(=O)(=O)NC(C)(C)C)cc1C(=O)Nc1ccc(F)c(Br)c1 [Compound 27, N-(3-Bromo-4-fluorophenyl)-5-(tert-butylsulfamoyl)-2-methylthiophene-3-carboxamide]		12200 nM		90 nM	130 nM
Cc1sc(S(=O)(=O)NC(C)(C)C(F)(F)F)cc1C(=O)Nc1cc(F)c(F)c(Cl)c1 [Compound 40, N-(3-chloro-4,5-difluoro-phenyl)-2-methyl-5-[(2,2,2-trifluoro-1,1-dimethyl-ethyl)sulfamoyl]thiophene-3-carboxamide]		> 25000 nM		500 nM	
